Results from patent US20240391948A1, “NOVEL COMPOUND THAT INHIBITS TNF-ALPHA GENERATION AND INFLAMMASOME ACTIVITY AND PREPARATION METHOD THEREFOR” (SHAPERON INC., priority 2021, published 2024).

Legend:
Assay type in all cases: cell-based
[1] = system: J774A.1 (Mouse BALB/c monocyte macrophage cell line) cells; experiment: LPS-induced TNF-α secretion inhibition in J774A.1 cells; conditions: J774.A1, 1 μM compound, graded compared to taurodeoxycholic acid (positive control), read-out: TNF-α production inhibition grade
Outline: (§1)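 Mouse J774A.1 macrophages treated with 1 μM compound; TNF-α secretion measured after LPS stimulation and IL-1β secretion after LPS+ATP stimulation. Suppression graded against taurodeoxycholic acid: A over 100%, B 50–100%, C 20–50%, D under 20%.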

[2] = system: J774A.1 (Mouse BALB/c monocyte macrophage cell line) cells; experiment: LPS+ATP-induced IL-1β secretion inhibition in J774A.1 cells; conditions: J774.A1, 1 μM compound, graded compared to taurodeoxycholic acid (positive control), read-out: IL-1β production inhibition grade
Outline: as §1

[3] = system: U937 cells (human monocytic cell line); experiment: Pam2CSK4-induced TNF-α secretion inhibition in PMA-differentiated U937 cells; conditions: U-937, U937 cells differentiated with PMA, read-out: TNF-α production inhibition grade (IC50)
Outline: (§2)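 U937 cells were PMA-differentiated into macrophages and treated with compound before inflammatory stimulus. TNF-α secretion was induced with Pam2CSK4 and IL-1β secretion with BzATP. IC50 (μM) values are graded A-D, with separate cut-offs per cytokine.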

[4] = system: U937 cells (human monocytic cell line); experiment: BzATP-induced IL-1β secretion inhibition in PMA-differentiated U937 cells; conditions: U-937, U937 cells differentiated with PMA, read-out: IL-1β production inhibition grade (IC50)
Outline: as §2

SMILES | inhibition at 1 µM [1] | inhibition at 1 µM [2] | IC50 [3] | IC50 [4]
C[C@H](CCC(=O)N[C@@H](C)CS(=O)(=O)O)[C@H]1CC[C@H]2[C@@H]3[C@H](O)C[C@@H]4C[C@H](O)CC[C@]4(C)[C@H]3C[C@H](O)[C@]12C [NC20028] | < 20% | < 20% | 1000 to 2000 nM | ≥ 200 nM
C[C@H](CCC(=O)N(CCO)CCS(=O)(=O)O)[C@H]1CC[C@H]2[C@@H]3CC[C@@H]4CC(=O)CC[C@]4(C)[C@H]3CC[C@]12C [NC30006] | < 20% | < 20% | 500 to 1000 nM | ≥ 200 nM
C[C@H](CCC(=O)N(CCS(=O)(=O)O)C1CCOCC1)[C@H]1CC[C@H]2[C@@H]3CC[C@@H]4C[C@H](O)CC[C@]4(C)[C@H]3CC[C@]12C [NC10059] | < 20% | > 100% | 1000 to 2000 nM | < 50 nM
C[C@H](CCC(=O)N(CCS(=O)(=O)O)Cc1ccccc1)[C@H]1CC[C@H]2[C@@H]3CC[C@@H]4C[C@H](O)CC[C@]4(C)[C@H]3C[C@H](O)[C@]12C [NC10022] | 20 to 50% | 50 to 100% | 500 to 1000 nM | 100 to 200 nM
